Laboratory results published in US20160297851A1, “BROAD SPECTRUM […]” (priority 2012, published 2016).
≈ marks a conversion by molar mass, not a printed value. Where two headings read alike, the source gives them in different places.

Assays:
[1] = system: wild type S. epidermidis RP62A; assay: microbe, parasite or virus in culture; type: cell-based, Staphylococcus epidermidis; settings: for MIC: Staphylococcus epidermidis, Sensitive strain (SPase without the resistance-conferring Pro), read-out: MIC
[2] = system: lepB(P29S) S. aureus 8325; assay: microbe, parasite or virus in culture; type: cell-based, Staphylococcus aureus; settings: for MIC: Staphylococcus aureus, Sensitive (genetically sensitized) strain, read-out: MIC
[3] = system: lepB(P84L) E. coli MG1655; assay: microbe, parasite or virus in culture; type: cell-based, Escherichia coli
[4] = system: lepB(P84L) P. aeruginosa PAO1; assay: microbe, parasite or virus in culture; type: cell-based, Pseudomonas aeruginosa
[5] = system: spsB(S29P) S. epidermidis RP62A; assay: microbe, parasite or virus in culture; type: cell-based, Staphylococcus epidermidis; settings: Staphylococcus epidermidis; read-out: MIC
wild type S. aureus 8325 = assay: microbe, parasite or virus in culture; type: cell-based, Staphylococcus aureus; settings: Staphylococcus aureus; Resistant strain (wild type); read-out: MIC
wild type E. coli MG1655 = assay: microbe, parasite or virus in culture; type: cell-based, Escherichia coli; settings: Escherichia coli, MG1655, Resistant strain (wild type); read-out: MIC
[6] = system: wild type P. aeruginosa PAO1; assay: microbe, parasite or virus in culture; type: cell-based, Pseudomonas aeruginosa; settings: Pseudomonas aeruginosa, PAO1, Resistant strain (wild type); read-out: MIC
[7] = system: Gram-negative strains (E. coli, P. aeruginosa); assay: MIC panel; type: cell-based; settings: wild type or mutant Gram-negative strains
[8] = Table 3, P3 position derivatives, unit not given

Compound | minimal inhibitory concentration (MIC) [1] | fold loss of activity relative to arylomycin C16 [2] | minimal inhibitory concentration (MIC) [2] | minimal inhibitory concentration (MIC) [3] | fold loss of activity relative to arylomycin C16 [4] | minimal inhibitory concentration (MIC) [4] | minimal inhibitory concentration (MIC) [1, 8] | minimal inhibitory concentration (MIC) [2, 8] | minimal inhibitory concentration (MIC) [3, 8] | minimal inhibitory concentration (MIC) [4, 8] | also measured
CCCCCCCCCCCCCCCC(=O)N(C)[C@H](CO)CCC(=O)N[C@H](C)C(=O)NCC(=O)N(C)[C@@H]1C(=O)N[C@@H](C)C(=O)N[C@H](C(=O)O)Cc2ccc(O)c(c2)-c2cc1ccc2O [Compound 24] | – | – | – | – | – | – | – | – | – | – | MIC [1]: 8 µg/mL (≈ 8.8 µM); MIC [2]: 4 µg/mL; MIC ([3]; Escherichia coli, MG1655, Sensitive (genetically sensitized) strain, read-out: MIC): > 64 µg/mL; MIC ([4]; Pseudomonas aeruginosa, PAO1, Sensitive (genetically sensitized) strain, read-out: MIC): > 64 µg/mL; MIC [5]: 16 µg/mL (≈ 17.6 µM); MIC (wild type S. aureus 8325): 16 µg/mL (≈ 17.6 µM); MIC (wild type E. coli MG1655): > 64 µg/mL; MIC [6]: > 64 µg/mL
CCCCCCCCCCCCCCCC(=O)N(C)[C@H](CO)C(=O)N[C@H](C)C(=O)NCC(=O)N(C)[C@@H]1C(=O)N[C@@H](C)C(=O)N[C@H](C(=O)O)Cc2ccc(O)c(c2)-c2cc1ccc2O [Compound 25] | – | – | – | – | – | – | – | – | – | – | MIC [1]: 32 µg/mL (≈ 36.3 µM); MIC [2]: 64 µg/mL; activity in words [7]: no activity
CCCCCCCCCCCCCCCC(=O)N(C)[C@H](CO)C(=O)N[C@H](C)C(=O)NCC(=O)N(C)[C@@H]1C(=O)NCC(=O)N[C@H](C(=O)O)Cc2ccc(O)c(c2)-c2cc1ccc2O [Compound 26] | 8 | > 16 fold | >64 | 16 | > 16 fold | >64 | – | – | – | – | fold loss of activity relative to arylomycin C16 [1]: 32 fold; fold loss of activity relative to arylomycin C16 [3]: 32 fold
CCCCCCCCCCCCCCCC(=O)N(C)[C@H](CO)C(=O)N[C@H](C)C(=O)NCC(=O)N(C)[C@@H]1C(=O)N[C@@H](CC)C(=O)N[C@H](C(=O)O)Cc2ccc(O)c(c2)-c2cc1ccc2O [Compound 27] | 0.5 | – | 8 | 1 | – | 4 | – | – | – | – | –
CCCCCCCCCCCCCCCC(=O)N(C)[C@H](CO)C(=O)N[C@H](C)C(=O)NCC(=O)N(C)[C@@H]1C(=O)N[C@@H](CCC)C(=O)N[C@H](C(=O)O)Cc2ccc(O)c(c2)-c2cc1ccc2O [Compound 28] | – | – | – | – | – | – | 1 | 8 | 2 | 8 | –
CCCCCCCCCCCCCCCC(=O)N(C)[C@H](CO)C(=O)N[C@H](C)C(=O)NCC(=O)N(C)[C@@H]1C(=O)N[C@@H](CCCC)C(=O)N[C@H](C(=O)O)Cc2ccc(O)c(c2)-c2cc1ccc2O [Compound 29] | 4 | 32 fold | 16 | >128 | – | >128 | – | – | – | – | –
CCCCCCCCCCCCCCCC(=O)N(C)[C@H](CO)C(=O)N[C@H](C)C(=O)NCC(=O)N(C)[C@@H]1C(=O)N[C@@H](CCCCC)C(=O)N[C@H](C(=O)O)Cc2ccc(O)c(c2)-c2cc1ccc2O [Compound 30] | – | 32 fold | – | – | – | – | 4 | 16 | >128 | >128 | –
CCCCCCCCCCCCCCCC(=O)N(C)[C@H](CO)C(=O)N[C@H](C)C(=O)NCC(=O)N(C)[C@@H]1C(=O)NC(CC(F)(F)F)C(=O)N[C@H](C(=O)O)Cc2ccc(O)c(c2)-c2cc1ccc2O (stereo partly drawn) [Compound 33] | – | at least 16 fold | – | – | at least 16 fold | – | 8 | >64 | 16 | >64 | fold loss of activity relative to arylomycin C16 [1]: 32 fold; fold loss of activity relative to arylomycin C16 [3]: 8 fold
CCCCCCCCCCCCCCCC(=O)N(C)[C@H](CO)C(=O)N[C@H](C)C(=O)NCC(=O)N(C)[C@@H]1C(=O)N[C@@H](C(C)C)C(=O)N[C@H](C(=O)O)Cc2ccc(O)c(c2)-c2cc1ccc2O [Compound 34] | – | – | – | – | 4 fold | – | 4 | 32 | 4 | 16 | activity in words [3]: maintained activity
CCCCCCCCCCCCCCCC(=O)N(C)[C@H](CO)C(=O)N[C@H](C)C(=O)NCC(=O)N(C)[C@@H]1C(=O)N[C@@H](CC(C)C)C(=O)N[C@H](C(=O)O)Cc2ccc(O)c(c2)-c2cc1ccc2O [Compound 35] | 2 | – | 32 | 4 | > 16 fold | >64 | – | – | – | – | activity in words [3]: maintained activity
